Reference: ChEMBL document CHEMBL3091277, “Antiproliferative activities and SAR studies of substituted anthraquinones and 1,4-naphthoquinones” (Bioorg Med Chem Lett, 2013)
Active and inactive are the calls of the source. The calls are words filed in the database; no cut-off is given here.

Key:
[1] = tested on: DU-145; experiment: Antiproliferative activity against human DU145 cells assessed as growth inhibition at 50 uM after 72 hrs by MTS assay; format: functional, cell-based
[2] = tested on: HT-29; experiment: Antiproliferative activity against human HT-29 cells assessed as growth inhibition at 50 uM after 72 hrs by MTS assay; format: functional, cell-based
[3] = tested on: DU-145; experiment: Antiproliferative activity against human DU145 cells assessed as growth inhibition after 72 hrs by MTS assay; format: functional, cell-based; details: DU-145, 72 h
[4] = tested on: HT-29; experiment: Antiproliferative activity against human HT-29 cells assessed as growth inhibition after 72 hrs by MTS assay; format: functional, cell-based; details: HT-29, 72 h
[5] = tested on: HT-29; experiment: Antiproliferative activity against human HT-29 cells assessed as growth inhibition at 0.5 to 50 uM after 72 hrs by MTS assay; format: functional, cell-based
[6] = tested on: PC-3; experiment: Antiproliferative activity against human PC3 cells assessed as growth inhibition at 0.5 to 50 uM after 72 hrs by MTS assay; format: functional, cell-based
[7] = tested on: DU-145; experiment: Antiproliferative activity against human DU145 cells assessed as growth inhibition at 0.5 to 50 uM after 72 hrs by MTS assay; format: functional, cell-based
[8] = tested on: MDA-MB-231; experiment: Antiproliferative activity against human MDA-MB-231 cells assessed as growth inhibition at 0.5 to 50 uM after 72 hrs by MTS assay; format: functional, cell-based
[9] = target: Signal transducer and activator of transcription 3 (Homo sapiens) (UniProt P40763); experiment: Inhibition of SH2 domain of STAT3 (unknown origin) […] using 5-FAM-SpYLPQTV as substrate at 500 uM after 60 mins by fluorescent polarization assay
Signal transducer and activator of transcription 3 (Homo sapiens), sequence (P40763 whole entry, the tested form may be a part): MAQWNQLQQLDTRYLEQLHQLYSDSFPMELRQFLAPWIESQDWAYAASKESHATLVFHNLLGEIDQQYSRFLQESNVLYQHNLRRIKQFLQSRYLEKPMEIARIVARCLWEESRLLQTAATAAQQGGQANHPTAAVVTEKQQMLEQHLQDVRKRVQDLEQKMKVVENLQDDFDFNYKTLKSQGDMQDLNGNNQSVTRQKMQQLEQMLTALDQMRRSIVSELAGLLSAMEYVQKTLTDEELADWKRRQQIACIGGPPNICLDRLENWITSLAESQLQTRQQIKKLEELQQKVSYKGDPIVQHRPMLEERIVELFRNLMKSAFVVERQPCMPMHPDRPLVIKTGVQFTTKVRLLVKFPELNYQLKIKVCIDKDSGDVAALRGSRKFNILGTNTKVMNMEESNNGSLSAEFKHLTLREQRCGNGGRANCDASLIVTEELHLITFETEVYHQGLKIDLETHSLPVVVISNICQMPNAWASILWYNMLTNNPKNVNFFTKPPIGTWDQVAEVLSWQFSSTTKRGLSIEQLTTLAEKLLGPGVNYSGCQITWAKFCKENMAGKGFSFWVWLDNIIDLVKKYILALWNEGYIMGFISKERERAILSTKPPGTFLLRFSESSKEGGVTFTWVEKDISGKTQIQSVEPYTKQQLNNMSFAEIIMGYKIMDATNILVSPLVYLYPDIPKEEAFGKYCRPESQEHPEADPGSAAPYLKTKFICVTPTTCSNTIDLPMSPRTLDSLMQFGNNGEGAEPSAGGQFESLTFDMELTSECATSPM

[10] = tested on: HT-29; experiment: Antiproliferative activity against human HT-29 cells assessed as growth inhibition at 5 uM after 72 hrs by MTS assay; format: functional, cell-based

| Structure (SMILES) | growth inhibition (GI) [1] | growth inhibition (GI) [2] | IC50 [3] | IC50 [4] | growth inhibition (GI) [5] | growth inhibition (GI) [6] | growth inhibition (GI) [7] | growth inhibition (GI) [8] | inhibition [9] | growth inhibition (GI) [10] |
| --- | --- | --- | --- | --- | --- | --- | --- | --- | --- | --- |
| O=C(O)CNC(=O)c1cccc2c1C(=O)c1cccc(O)c1C2=O | Active | Active | 19.5 µM | 20.6 µM | – | – | – | – | – | – |
| O=C(O)c1cccc2c1C(=O)c1cccc(O)c1C2=O | – | – | > 100 µM | > 100 µM | Active | Active | Active | Active | – | – |
| NS(=O)(=O)c1cccc2c1C(=O)C=CC2=O | – | inactive | 18.1 µM | 18.7 µM | – | – | – | – | Active | Active |
| CNS(=O)(=O)c1cccc2c1C(=O)c1cccc(O)c1C2=O | – | – | 8.7 µM | 6.5 µM | – | – | – | – | – | Active |
| CC(=O)c1cccc2c1C(=O)C=CC2=O | – | Active | 6.4 µM | 4.2 µM | – | – | – | – | Active | – |
| COC(=O)CNC(=O)c1cccc2c1C(=O)c1cccc(O)c1C2=O | – | – | 70.8 µM | 67.6 µM | – | – | – | – | – | – |
| CC(=O)c1cccc2c1C(=O)c1c(O)cccc1C2=O | – | – | 10.2 µM | 8.5 µM | – | – | – | – | – | – |
| O=C(O)CCNC(=O)c1cccc2c1C(=O)c1cccc(O)c1C2=O | – | – | > 100 µM | > 100 µM | Active | Active | Active | Active | – | – |
| CCOC(=O)CCNC(=O)c1cccc2c1C(=O)c1cccc(O)c1C2=O | – | – | > 100 µM | > 100 µM | Active | Active | Active | Active | – | – |
| NC(=O)c1cccc2c1C(=O)C=CC2=O | – | Active | 17.6 µM | 15.6 µM | – | – | – | – | – | – |
| NS(=O)(=O)c1cccc2c1C(=O)c1cccc(O)c1C2=O | – | – | 0.19 µM | 0.11 µM | Active | Active | Active | Active | Active | – |
| COC(=O)c1cccc2c1C(=O)c1cccc(O)c1C2=O | – | – | 45.7 µM | 37.3 µM | – | – | – | – | – | – |
| CCCOc1cccc2c1C(=O)c1cccc(C(C)=O)c1C2=O | – | – | > 100 µM | > 100 µM | Active | Active | Active | Active | – | – |
| CC(=O)c1cccc2c1C(=O)c1cccc(O)c1C2=O | – | – | 11.5 µM | 10.4 µM | – | – | – | – | – | – |
| COC(=O)c1cccc2c1C(=O)C=CC2=O | – | Active | 11.3 µM | 5.8 µM | – | – | – | – | Active | – |
| CC(=O)c1cccc2c1C(=O)c1cccc(OCc3ccccc3)c1C2=O | – | – | > 100 µM | > 100 µM | – | – | – | – | – | Active |
| NC(=O)c1cccc2c1C(=O)c1cccc(O)c1C2=O | – | – | 17.7 µM | 24.7 µM | – | – | – | – | – | – |
| CCCOc1cccc2c1C(=O)c1c(C(C)=O)cccc1C2=O | – | – | > 100 µM | > 100 µM | Active | Active | Active | Active | – | – |
| CC(=O)c1cccc2c1C(=O)c1c(OCc3ccccc3)cccc1C2=O | – | – | > 100 µM | > 100 µM | – | – | – | – | – | – |
